In PMC8224802 (Pharmaceutics, 2021):
Where two headings read alike, the source gives them in different places.

Key:
[1] = humans; cited from earlier work
[2] = In vitro microsomal metabolism of RPG (disappearance) in RLM; assay type: in vitro ADME, rat; settings: RLM 0.3 mg/mL, 1–500 μM RPG, Michaelis–Menten fit
Description: At 0, 30, and 60 min after starting the metabolic reaction, a 50 μL aliquot of the incubation mixture was sampled and transferred to a clean 1.5-mL microcentrifuge tube containing 150 μL of ice-cold acetonitrile to terminate the metabolic reaction.
The intrinsic metabolic clearance (CLint) was calculated as Vmax/Km. […] Max and Min are the initial and final Y values, respectively, and the power P represents the Hill coefficient. […] Vmax and Km are the same as those defined in Equation (2). The parameter α is indicative of the inhibition type. The mixed model is a general equation that includes competitive, uncompetitive, and noncompetitive inhibition as special cases. When α = 1, the mixed model is identical to a noncompetitive inhibition. When α is very large (α→∞) or very small (α→0), the mixed model becomes identical to competitive inhibition or uncompetitive inhibition, respectively.

[3] = tested on: microsomal metabolism of RPG in RLM; test: In vitro inhibition of RPG metabolism by QCT in RLM; assay type: in vitro ADME, rat; settings: RLM
Description: The intrinsic metabolic clearance (CLint) was calculated as Vmax/Km. […] The parameter α is indicative of the inhibition type. The mixed model is a general equation that includes competitive, uncompetitive, and noncompetitive inhibition as special cases. When α = 1, the mixed model is identical to a noncompetitive inhibition. When α is very large (α→∞) or very small (α→0), the mixed model becomes identical to competitive inhibition or uncompetitive inhibition, respectively.

[4] = Microsomal protein binding by rapid equilibrium dialysis (RLM); assay type: in vitro ADME, rat
Description: (§1) A 200 μL spiked samples and 400 μL PBS were placed into the “sample” and “buffer” chambers of the RED device, respectively. After 4-h incubation to equilibrate between the buffer and plasma compartments, the RED plate was sampled from both compartments. The samples were matrix-matched for analysis by addition of either diluted plasma or buffer; (a) blank diluted plasma added to the buffer samples and (b) blank buffer added to the diluted plasma sample, at a ratio of 50:50 v/v. The unbound fractions in microsomes and diluted plasma were determined by dividing the analyte/IS peak area ratios of the (a) sample by those of the (b) sample. The unbound fraction in diluted plasma (fu,d) was converted to the unbound fraction in undiluted plasma (fu) using a Kalvass equation as below (DF: dilution factor). (1) fu=1/DF/[(1/fu,d)−1]+1/DF

[5] = Plasma protein binding by rapid equilibrium dialysis (human plasma); assay type: in vitro ADME
Description: as §1

[6] = Plasma protein binding by rapid equilibrium dialysis (rat plasma); assay type: in vitro ADME, Sprague-Dawley rat
Description: as §1

[7] = Blood-to-plasma concentration ratio (rat whole blood); assay type: in vitro ADME; settings: RPG and QCT 5 μM each
Description: (§2) A plasma sample was obtained by centrifugation of the blood sample at 2000× g for 5 min.

[8] = In vivo oral pharmacokinetic study of RPG without or with QCT in rats; set-up: species or system Sprague-Dawley rats; settings: for bioavailability: read-out: F (absolute oral bioavailability)
Description: (§3) Rats were anesthetized via intramuscular injection of 10 mg/kg zoletil. The femoral vein and artery of the rats were cannulated using a polyethylene tube (BD Medical, Franklin Lakes, NJ, USA). […] The vehicle solutions for the intravenous and oral doses were composed of PEG 400 and aqueous 0.3% CMC solution (50:50 v/v).
For comparison, the extent of absolute oral bioavailability (F; expressed as percent of dose administered) was calculated by dividing the dose-normalized AUC after oral administration by the dose-normalized AUC after intravenous injection. The peak plasma concentration (Cmax) and time to reach Cmax (Tmax) were obtained directly from the measured experimental data.

[9] = Blood-to-plasma concentration ratio (human whole blood); assay type: in vitro ADME; settings: RPG and QCT 5 μM each
Description: as §2

[10] = In vivo intravenous pharmacokinetic study of RPG without or with QCT in rats; set-up: species or system Sprague-Dawley rats; settings: for AUC / clearance / half-life / Vd: Sprague-Dawley, rat, plasma, 0.4 mg/kg; for Vd: read-out: Vss
Description: as §3, with “v/v). Approximately 300 μL of blood was collected via the femoral artery at 0, 1, 5, 15, 30, 60, 90, 120, 180, and 240 min after intravenous injection and at 10, 20, 30, 45, 60, 90, 120, 180, and 240 min after oral administration.” for “v/v).”
Non-compartmental analysis (WinNonlin, version 3.1, NCA200 and 201; Certara, Inc., Princeton, NJ, USA) was conducted to estimate the following pharmacokinetic parameters: total area under the plasma concentration–time curve from time zero to time infinity (AUC); total body clearance (CL, calculated as dose/AUC); terminal half-life (t1/2); and apparent volume of distribution at steady state (Vss). For comparison, the extent of absolute oral bioavailability (F; expressed as percent of dose administered) was calculated by dividing the dose-normalized AUC after oral administration by the dose-normalized AUC after intravenous injection. The peak plasma concentration (Cmax) and time to reach Cmax (Tmax) were obtained directly from the measured experimental data.

[11] = Microsomal protein binding by rapid equilibrium dialysis (HLM)
Description: as §1

[12] = Sprague-Dawley, rat, plasma, po, 0.4 mg/kg, rats, RPG 0.4 mg/kg oral with QCT 100 mg/kg oral
[13] = Sprague-Dawley, rat, plasma, po, 0.4 mg/kg, rats, RPG 0.4 mg/kg oral, RPG alone
[14] = rats, RPG 0.4 mg/kg oral with QCT 100 mg/kg oral
[15] = rats, RPG 0.4 mg/kg oral, QCT 100 mg/kg oral
[16] = rats, RPG 0.4 mg/kg oral, RPG alone
[17] = RPG 0.4 mg/kg iv, QCT 25 mg/kg iv
[18] = iv, RPG 0.4 mg/kg iv with QCT 25 mg/kg iv
[19] = iv, RPG 0.4 mg/kg iv, RPG alone

Compound: CCOc1cc(CC(=O)N[C@@H](CC(C)C)c2ccccc2N2CCCCC2)ccc1C(=O)O [RPG, Repaglinide]
- F of RPG [1]: approximately 62.5%
- Vmax, metabolism of RPG [2]: 3070 ± 960 pmol/min/mg protein
- Km of RPG metabolism in the Ki estimation study ([3]; QCT 0 μM): 53 µM
- Km of RPG metabolism in the Ki estimation study ([3]; QCT 200 μM): 81 µM
- Change of fuMIC of RPG by the presence of QCT ([4]; RLM, RPG and QCT 5 μM each): not significantly altered
- fraction unbound at 4 h, 5 μM ([4]; rat, liver microsomes, read-out: fuMIC (unbound fraction in liver microsomes)): 0.671 ± 0.009
- Change of fuP of RPG by the presence of QCT ([5]; human plasma, RPG and QCT 5 μM each): not significantly altered
- fraction unbound at 4 h, 5 μM ([5]; human, plasma (20-fold diluted), read-out: fuP (unbound fraction in plasma)): 0.0533 ± 0.006
- fraction unbound at 4 h, 5 μM ([6]; Sprague-Dawley, rat, plasma (20-fold diluted), read-out: fuP (unbound fraction in plasma)): 0.0761 ± 0.0094
- Change of fuP of RPG by the presence of QCT ([6]; rat plasma, RPG and QCT 5 μM each): not significantly altered
- Change of RB of RPG by the presence of QCT [7]: not significantly altered
- AUC [8, 12]: 803 ng·h/mL
- Cmax [8, 12]: 238 ± 76 ng/mL
- half-life [8, 12]: 148 ± 49 min
- bioavailability [8, 12]: 95.1%
- Cmax [8, 13]: 129 ± 33 ng/mL
- half-life [8, 13]: 139 ± 66 min
- bioavailability [8, 13]: 50.7%
- Tmax ([8]; Sprague-Dawley, rat, plasma, po, 0.4 mg/kg, read-out: Tmax, median (range) (converted)): 45 min
- AeGI [8, 14]: 2.90 ± 2.50 % of dose
- AeU [8, 14]: 0.371 ± 0.336 % of dose
- Tmax, median (range) [8, 14]: 45 (30–60) min
- AUC of RPG higher with concurrent QCT than in control rats [8, 15]: 87.6%
- Cmax of RPG higher with concurrent QCT than in control rats [8, 15]: 84.2%
- AeGI [8, 16]: 3.41 ± 1.65 % of dose
- AeU [8, 16]: 0.458 ± 0.441 % of dose
- Increase of AUC of orally administered RPG by oral QCT ([8]; rats, RPG oral with QCT 100 mg/kg oral vs RPG alone): 1.88 fold
- Intestinal availability (FG) ([8]; rats, from F = Fabs × FG × FH with Fabs assumed 1): 0.572–0.620
- Fecal excretion of oral RPG ([8]; rats, oral): 2.21–5.78 % of the dose administered
- Change of RB of RPG by the presence of QCT [9]: not significantly altered
- Hepatic availability (FH) ([10]; 1 − EH): 0.818–0.886
- AeU ([10]; RPG 0.4 mg/kg iv with QCT 25 mg/kg iv): 1.32 ± 0.88 % of dose
- AUC of RPG higher with concurrent QCT than in control rats [10, 17]: 83.4%
- CL of RPG lower with concurrent QCT than in control rats [10, 17]: 44.9%
- Difference in Vss of RPG between QCT and control groups [10, 17]: no significant differences
- t1/2 of RPG higher with concurrent QCT than in control rats [10, 17]: 40.8%
- AeU ([10]; RPG 0.4 mg/kg iv, RPG alone): 1.60 ± 0.77 % of dose
- Increase of AUC of intravenous RPG after concurrent QCT ([10]; RPG iv with QCT iv vs RPG alone): 1.83 fold
- AUC [10, 18]: 1550 ng·h/mL
- clearance [10, 18]: 4.36 ± 0.54 mL/min/kg
- half-life [10, 18]: 57.4 ± 10.6 min
- Vd [10, 18]: 0.269 ± 0.025 L/kg
- AUC [10, 19]: 845 ng·h/mL
- clearance [10, 19]: 7.92 ± 0.47 mL/min/kg
- half-life [10, 19]: 40.8 ± 4.2 min
- Vd [10, 19]: 0.293 ± 0.018 L/kg
- Urinary and fecal excretion of RPG administered intravenously ([10]; iv): ≤ 1.60 % of the dose
- Hepatic clearance CLH (blood clearance, CL/RB) ([10]; iv RPG alone, assuming exclusive hepatic metabolism): 9.11 mL/min/kg
- Change of fuMIC of RPG by the presence of QCT ([11]; HLM, RPG and QCT 5 μM each): not significantly altered
- fraction unbound at 4 h, 5 μM ([11]; human, liver microsomes): 0.62 ± 0.152
